From US20260315434A1, “USE OF GUAIACOL SESQUITERPENE LACTONE DERIVATIVES” (NANJING UNIVERSITY OF CHINESE MEDICINE, priority 2023, published 2026)
In brackets after ≈: the same amount, converted by molar mass. Marks after values point to notes of the source that are not given here.

Key:
[1] = test system: 4T1 cells; assay: Antitumor effect in 4T1 mouse mammary carcinoma xenograft model; format: in vivo, BALB/c mice; settings: for Tumor inhibition rate (%) / Tumor weight: 40 μmol/kg/day, 4T1
Method: 4T1 cells were cultured and expanded in vitro. […] A 100 μL aliquot of this suspension was injected subcutaneously into the left forelimb axilla of female BALB/c mice. […] Daily oral administration was performed for 3 weeks. During the treatment period, mouse body weight and tumor diameter were measured daily. At the end of the experiment, mice were euthanized by cervical dislocation, and tumors were removed for weighing. Tumor volume (TV) was calculated using the formula: TV=½×a×b^2, where a represents the longest diameter of the tumor and b represents the shortest diameter.

[2] = test system: fibrosis-related factors (Acta2, Col1a1, Tgfb1) in liver tissue; assay: CCl4-induced acute liver injury, liver fibrosis-related factor mRNA; format: in vivo, C57BL/6 mice; parameters: unit not given here
Method: They were acclimated for 7 days before use in experiments.
Mice were randomly assigned to groups. One group was arbitrarily designated as the normal group, while the remaining groups served as model group, Compound 1 group, Hydrochloride 20 group, Fumarate 21 group, and Silibinin group, with 6 mice per group. Except for the normal group receiving 10 mL olive oil/kg via injection, all other mice received 0.5 mL CCl4+9.5 mL olive oil/kg body weight via intraperitoneal injection, maintaining a CCl4 to olive oil ratio of 1:19. Starting from day 1 of modeling, Compound 1, Hydrochloride 20, and Fumarate 21 were administered orally for 3 consecutive days.
The blood was allowed to stand at room temperature for 2 hours, then centrifuged at 3000 rpm for 20 minutes. Serum was aspirated, aliquoted, and stored at −70° C. for future use. After blood collection, euthanize mice by cervical dislocation. Perform laparotomy to remove the liver. Rinse twice with pre-chilled PBS. Excise the left hepatic lobe tissue. […] Store remaining tissue at −70° C. for future use.
Q-PCR Analysis: Tissue total RNA extraction, cDNA synthesis, and PCR amplification methods are identical to Example 4. Additional primer information is as follows:
Data Statistics: All data are expressed as means f standard error of the mean (S.E.M.). Differences were analyzed for significance using analysis of variance (ANOVA). For groups showing significant differences in ANOVA, one-way ANOVA followed by Dunnett's test was performed to compare intergroup differences.

[3] = test system: inflammatory cytokines (TNF, IL-6, IL-1) in lung tissue; assay: LPS-induced sepsis, lung inflammatory factor mRNA (Q-PCR); settings: for Il1 mRNA expression, lung: LPS 19.01; for Il6 mRNA expression, lung: LPS 20.34; for Tnf mRNA expression, lung: Normal = 1.00, LPS 10.92
Text: (§4) They were acclimated for 7 days before experimentation.
(§5) The normal and model groups received equal volumes of solvent (0.5% CMC-Na) via oral gavage.
(§6) Specimen Collection: One hour after the final drug administration, mice were euthanized by cervical dislocation. The abdominal cavity was opened, and the lungs, liver, and kidneys were removed. These organs were rinsed twice with pre-chilled PBS. Tissue samples were excised from the mouse lungs, left hepatic lobe, and kidneys. […] Remaining tissues were stored at −70° C. for future use.
(§7) Accurately weigh 20 mg of kidney, lung, and liver tissue. Rinse with pre-chilled PBS solution, cut into small pieces using ophthalmic scissors, and place into a glass homogenizer. Add 1 mL of Trizol reagent and grind to prepare tissue homogenate. Transfer the homogenate to a RNAse-free 1.5 mL EP tube and lyse on ice for 10 min. Add 200 μL chloroform, vortex vigorously, and let stand on ice for 3-5 min. Centrifuge at 12,000 rpm and 4° C. for 15 min. Carefully transfer the supernatant to a new RNAse-free 1.5 mL EP tube. Add an equal volume of pre-chilled isopropanol, incubate on ice for 30 min, then centrifuge at 12,000 rpm and 4° C. for 10 min. Discard the supernatant. […] Subsequently, dissolve the pellet in 10 μL DEPC-treated water. Dilute 1 μL of the total RNA solution 100-fold and measure the OD values at 260 nm and 280 nm using a full-wavelength microplate reader.
(§8) Following the method described in the kit manual, subsequent experiments were conducted using a 20 μL reverse transcription reaction system:
(§9) Primers were designed based on the nucleotide sequence of the mouse in GenBank and synthesized.
(§10) Perform subsequent experiments using a 20 μL reaction system according to the kit instructions:
(§11) After adding the above reagents to micro reaction tubes, seal them with the cap and place them in the Q-PCR instrument. Set the parameters according to the following reaction conditions to perform the amplification experiment.
(§12) Record the threshold cycle (Ct) values for each group and perform calculation and analysis using the 2^−ΔΔCt method (setting the expression level of the reference gene Gapdh as 1 to correct the expression levels of the target genes).
(§13) Data Statistics: All data are presented as Means±S.E.M. Analysis of variance (ANOVA) was performed to assess the significance of differences. Groups showing significant differences in ANOVA were further compared using one-way ANOVA and Dunnett's test. A P-value <0.05 was considered statistically significant.

[4] = test system: inflammatory factors (MCP-1, TNF-α) in renal tissue; assay: Diabetic nephropathy, renal inflammatory factor mRNA; format: in vivo, C57/BL6J mice; parameters: Mcp-1 mRNA expression, kidney / Tnf-α mRNA expression, kidney / IL-6 mRNA expression, kidney: unit not given here; settings: 8 weeks
Method: (§1) Experimental animals: C57/BL6J mice, male, 12 weeks old, purchased from GemPharmatech LLC. Production license number: SCXK(Su)2023-0009. […] Animals were acclimated for 7 days before use in experiments.
(§2) Administer streptozotocin (STZ, 50 mg/kg) via intraperitoneal injection for 5 consecutive days. After 72 hours, select mice with fasting blood glucose levels exceeding 16.7 mmol/L as model mice. […] Model mice were fed a high-fat diet (HFD) providing 60% of energy from fat for 8 weeks. After 8 weeks, gavage administration commenced.
(§3) Specimen Collection: One hour after the last drug administration, enucleate the eyeball to collect blood. Allow blood to stand at room temperature for 2 hours, then centrifuge at 3000 rpm for 20 minutes. Aspirate the serum, aliquot it, and store at −70° C. for future use. After blood collection, euthanize the mice by cervical dislocation. Open the abdominal cavity, remove the kidneys, and dissect away the perirenal fat and capsule. Store the tissue at −70° C. for future use.

[5] = test system: inflammatory factors (TNF, IL-6, IL-1) in renal tissue; assay: Lupus nephritis, renal inflammatory factor mRNA; format: in vivo, MRL/lpr mice; settings: 8 weeks
Method: Experimental animals: MRI/MpJ and MRL/lpr mice, female, 10 weeks old, purchased from GemPharmatech LLC. Production license number: SCXK(Su)2023-0009. […] They were acclimated for 7 days before use in experiments.
Oral administration was performed continuously for 8 weeks.
Allow blood to stand at room temperature for 2 hours, then centrifuge at 3000 rpm for 20 minutes. Aspirate the serum, aliquot it, and store at −70° C. for future use. After blood collection, euthanize mice by cervical dislocation. Open the abdominal cavity, remove kidneys, and dissect out perirenal fat and capsules. […] Store remaining tissues at −70° C. for future use.

[6] = test system: H22 cells; assay: Antitumor efficacy combined with anti-PD-L1 monoclonal antibody, H22 xenograft; format: in vivo, Balb/c mice; settings: 2 weeks; for combination with anti-PD-L1 monoclonal antibody vs. single agents, H22: 2.5 mg/kg/day i.p., result in words; for Tumor inhibition rate (%) / Tumor weight: dose 2.5 (head μmol/kg/day; text 2.5 mg/kg/day), i.p. daily, H22
Method: H22 cells were cultured and expanded in vitro. An appropriate number of cells in the logarithmic growth phase was resuspended in a mixture of serum-free RPMI 1640 medium and Matrigel (1:1). Under aseptic conditions, prepare a2×10^6/100 μL cell suspension. Using a syringe, inject 100 μL of the cell suspension subcutaneously into the left forelimb axilla of male Balb/c mice. […] Compounds 20 and 103 were administered daily via intraperitoneal injection, while anti-PD-L1 monoclonal antibody was administered every three days via intraperitoneal injection for a 2-week treatment period. During the treatment period, mouse body weight and tumor diameter were measured daily. At the end of the experiment, mice were euthanized by cervical dislocation, and tumors were removed and weighed. Tumor volume (TV) was calculated using the formula: TV=½×a×b^2, where a represents the longest diameter of the tumor and b represents the shortest diameter.

[7] = test system: renal injury markers (Kim-1, Ngal) in kidney tissue; assay: Diabetic nephropathy, renal injury marker mRNA; format: in vivo, C57/BL6J mice; settings: 8 weeks
Method: as §1, §2, §3

[8] = test system: inflammatory factors (TNF, IL-6, IL-1) in renal tissue; assay: LPS-induced sepsis, renal inflammatory factor mRNA (Q-PCR); settings: for Tnf mRNA expression, kidney: LPS 7.30; for Il1 mRNA expression, kidney: LPS 7.99; for Il6 mRNA expression, kidney: LPS 8.80
Text: as §4, §5, §6, §7, §8, §9, §10, §11, §12, §13

[9] = Water solubility testing of compounds (HPLC); settings: deionized water, water, Water-solubility, 37 °C

| Structure (SMILES) | Acta2 mRNA expression, liver ([2]; 1 mg/kg oral) | Col1a1 mRNA expression, liver ([2]; 1 mg/kg oral) | Tgfb1 mRNA expression, liver ([2]; 1 mg/kg oral) | Il1 mRNA expression, lung ([3]; 1 mg/kg oral) | Il6 mRNA expression, lung ([3]; 1 mg/kg oral) | Tnf mRNA expression, lung ([3]; 1 mg/kg oral) | Mcp-1 mRNA expression, kidney ([4]; 1 mg/kg gavage) | Tnf-α mRNA expression, kidney ([4]; 1 mg/kg gavage) | Mcp-1 mRNA expression, kidney ([4]; 10 mg/kg gavage) | Tnf-α mRNA expression, kidney ([4]; 10 mg/kg gavage) | Il1 mRNA expression, kidney ([5]; 30 mg/kg oral) | Il6 mRNA expression, kidney ([5]; 30 mg/kg oral) | Tnf mRNA expression, kidney ([5]; 30 mg/kg oral) | combination with anti-PD-L1 monoclonal antibody vs. single agents, H22 [6] | Tumor inhibition rate (%) [6] | Tumor weight [6] | Kim-1 mRNA expression, kidney ([7]; 1 mg/kg gavage) | Ngal mRNA expression, kidney ([7]; 1 mg/kg gavage) | Kim-1 mRNA expression, kidney ([7]; 10 mg/kg gavage) | antitumor effect, 4T1 ([1]; oral, 3 weeks, result in words) | further results |
| --- | --- | --- | --- | --- | --- | --- | --- | --- | --- | --- | --- | --- | --- | --- | --- | --- | --- | --- | --- | --- | --- |
| C=C1C(=O)O[C@@H]2[C@H]3C(C)=CC[C@@]34O[C@@]4(C)CC[C@@H]12 [Arg, Arglabin, reference compound] | – | – | – | – | – | – | – | – | – | – | – | – | – | – | – | – | – | – | – | – | antitumor effect, 4T1 ([1]; mouse, in vivo, po): no significant antitumor effects |
| CN(C)C[C@@H]1C(=O)O[C@H]2[C@H]1CC[C@@]1(C)C[C@]13CC[C@@](C)(O)[C@H]23 [Compound 20] | 1.85 ± 0.77 | 1.16 ± 0.26 | 0.92 ± 0.21 | 5.22 ± 0.90 | 7.16 ± 0.71 | 6.52 ± 0.29 | 2.33 ± 0.20 | 1.38 ± 0.17 | 1.40 ± 0.22 | 0.96 ± 0.13 | 6.01 ± 0.99 | 11.80 ± 1.90 | 4.04 ± 0.33 | synergistic effect | 48.67% | 0.64 ± 0.09 g | 1.68 ± 0.17 | 1.38 ± 0.17 | 0.64 ± 0.10 | no significant antitumor effects | Ngal mRNA expression, kidney ([7]; 10 mg/kg gavage): 0.96 ± 0.13; Tnf mRNA expression, kidney ([8]; 1 mg/kg oral): 6.20 ± 0.60; Il1 mRNA expression, kidney ([8]; 1 mg/kg oral): 2.76 ± 0.59; Il6 mRNA expression, kidney ([8]; 1 mg/kg oral): 2.43 ± 0.64; Tumor inhibition rate (%) ([1]; oral, 3 weeks): −15.24%; Tumor weight ([1]; oral, 3 weeks): 2.09 ± 0.60 g |
| CN(C)C[C@@H]1C(=O)O[C@H]2[C@H]1CC[C@@]1(C)C[C@]13CC[C@@](C)(O)[C@H]23 [Compound 21] | 2.18 ± 0.42 | 1.26 ± 0.27 | 0.88 ± 0.16 | 6.79 ± 0.72 | 9.10 ± 1.20 | 8.67 ± 1.51 | – | – | – | – | – | – | – | – | – | – | – | – | – | – | Acta2 mRNA expression, liver ([2]; 0.1 mg/kg oral): 2.86 ± 0.26; Col1a1 mRNA expression, liver ([2]; 0.1 mg/kg oral): 1.83 ± 0.53; Tgfb1 mRNA expression, liver ([2]; 0.1 mg/kg oral): 1.08 ± 0.29; Il1 mRNA expression, lung ([3]; 0.1 mg/kg oral): 13.30 ± 0.88; Il6 mRNA expression, lung ([3]; 0.1 mg/kg oral): 18.40 ± 3.16; Tnf mRNA expression, lung ([3]; 0.1 mg/kg oral): 8.79 ± 1.18; Tnf mRNA expression, kidney ([8]; 0.1 mg/kg oral): 6.70 ± 0.80; Il1 mRNA expression, kidney ([8]; 0.1 mg/kg oral): 6.56 ± 0.88; Il6 mRNA expression, kidney ([8]; 0.1 mg/kg oral): 6.05 ± 0.19; Tnf mRNA expression, kidney ([8]; 1 mg/kg oral): 6.04 ± 1.62; Il1 mRNA expression, kidney ([8]; 1 mg/kg oral): 2.82 ± 0.33; Il6 mRNA expression, kidney ([8]; 1 mg/kg oral): 2.70 ± 0.52 |
| CC1=C2CC[C@@](C)(OC(=O)N3CCCCC3)[C@@H]2[C@H]2OC(=O)[C@@H](CN(C)C)[C@@H]2CC1 [Compound 102] | – | – | – | – | – | – | – | – | – | – | – | – | – | – | – | – | – | – | – | no significant antitumor effects | solubility [9]: 132 mg/mL (≈ 328 mM); Tumor inhibition rate (%) ([1]; oral, 3 weeks): −20.37%; Tumor weight ([1]; oral, 3 weeks): 2.18 ± 1.34 g |
| CC1=C2CC[C@@](C)(OC(=O)N3CCCC3)[C@@H]2[C@H]2OC(=O)[C@@H](CN3CCCC3)[C@@H]2CC1 [Compound 103] | – | – | – | – | – | – | 6.78 ± 1.70 | 3.14 ± 0.57 | 5.67 ± 2.31 | 2.15 ± 0.13 | 4.11 ± 0.41 | 1.83 ± 0.91 | 4.10 ± 0.67 | synergistic effect | 41.90% | 0.70 ± 0.08 g | 0.98 ± 0.41 | 2.34 ± 0.39 | 0.75 ± 0.24 | no significant antitumor effects | IL-1 β mRNA expression, kidney ([4]; 1 mg/kg gavage): 1.00 ± 0.25 ^; IL-6 mRNA expression, kidney ([4]; 1 mg/kg gavage): 4.47 ± 1.06; IL-1 β mRNA expression, kidney ([4]; 10 mg/kg gavage): 0.96 ± 0.18**^; IL-6 mRNA expression, kidney ([4]; 10 mg/kg gavage): 3.97 ± 0.94; Il1 mRNA expression, kidney ([5]; 10 mg/kg, oral): 6.78 ± 0.96; Il6 mRNA expression, kidney ([5]; 10 mg/kg, oral): 2.47 ± 0.53; Tnf mRNA expression, kidney ([5]; 10 mg/kg, oral): 7.24 ± 3.10; Ngal mRNA expression, kidney ([7]; 10 mg/kg gavage): 2.08 ± 0.34; solubility [9]: 278 mg/mL (≈ 668 mM) |
